PMC7924852, “The Emericellipsins A–E from an Alkalophilic Fungus Emericellopsis alkalina Show Potent Activity against Multidrug-Resistant Pathogenic Fungi” (Journal of Fungi, 2021)
≈ marks a conversion by molar mass, not a printed value.

Experiments:
[1] = tested on: B16 (mouse melanoma cell line); assay: MTT cytotoxicity assay; type: cell-based; details: Mus musculus, 72 h, three experiments, each in triplicate
Procedure: (§1) Experiments for determining the cytotoxic activity of the compound in MTT assays were performed as previously described. The following tumor cell lines were used for this study: HCT-116 (colon cancer cell line), B16 (mouse melanoma cell line), K-562 (leukemia cell line), MDA-MB-231 (breast cancer line), and MCF-7 (breast cancer cell). Human postnatal fibroblasts were used as a normal cell line, and doxorubicin was used as a positive control. The cell lines were cultured in Dulbecco modified Eagle’s medium supplemented with 5% fetal calf serum, 2 mM Lglutamine, 100 U/mL penicillin, and […] streptomycin at 37 °C, 5% CO2 in a humidified atmosphere. Experiments were carried out on cells in the logarithmic phase of growth. The peptide was dissolved in DMSO as a 10 mM stock solution, followed by serial dilutions in water immediately before the experiment. Briefly, cells (5 × 10^3 in […] of culture medium) were plated in a 96-well plate and treated with 0.1% DMSO (blank control) or with […] of the peptide (0.10‒50 μM; each concentration in duplicate) for 72 h. After incubation with peptide, […] of aqueous MTT solution (3-(4,5-dimethylthiazol-2-yl)-2,5-diphenyltetrazolium bromide, 5 mg/mL) were added into each well for 2‒3 h. Formazan was dissolved in DMSO, and the absorbance at 570 nm was measured. The cytotoxicity at a given EmiA concentration was calculated as the percentage of absorbance in wells with peptide-treated cells compared to that of blank control cells (100%). The IC50 (50% growth inhibitory concentration) was defined as the concentration of EmiA that inhibited MTT conversion by 50%. All the experiments were repeated three times, each time in triplicate. EmiA was tested at a range of concentrations, 0.1‒10 μM.

[2] = tested on: HCT-116 (colon cancer cell line); assay: MTT cytotoxicity assay; type: cell-based; details: Homo sapiens, 72 h, three experiments, each in triplicate
Procedure: as §1

[3] = tested on: HPF (human postnatal fibroblasts, normal cell line); assay: MTT cytotoxicity assay; type: cell-based; details: Homo sapiens, Fibroblast; HPF normal fibroblasts; MTT, 72 h; three experiments, each in triplicate
Procedure: as §1

Candida albicans 1402 [4] = assay: Broth microdilution MIC and MFC (CLSI); type: cell-based; details: Candida albicans 1402 clinical isolate; RPMI 1640 pH 7.0, 35 °C, 24 h; read-out: MIC
C. glabrata 1402 [5] = assay: Broth microdilution MIC and MFC (CLSI); type: cell-based; details: Nakaseomyces glabratus, 1402, 24 h, pH 7
C. krusei 1447 [6] = assay: Broth microdilution MIC and MFC (CLSI); type: cell-based; details: C. krusei 1447; symbol R defined in Table S1
C. tropicalis 156 [7] = assay: Broth microdilution MIC and MFC (CLSI); type: cell-based; details: Candida tropicalis; C. tropicalis 156 clinical isolate; RPMI 1640 pH 7.0, 35 °C, 24 h; read-out: MIC
C. parapsilosis 571 [8] = assay: Broth microdilution MIC and MFC (CLSI); type: cell-based; details: Lodderomyces parapsilosis, 571, 24 h, pH 7
[9] = tested on: Cryptococcus neoformans 297; assay: Broth microdilution MIC and MFC (CLSI); type: cell-based; details: Cryptococcus neoformans 297 clinical isolate; RPMI 1640 pH 7.0, 35 °C, 24 h; read-out: MIC
C. laurentii 325m = assay: Broth microdilution MIC and MFC (CLSI); type: cell-based, Cr. laurentii; details: Papiliotrema laurentii; C. laurentii 325m clinical isolate; RPMI 1640 pH 7.0, 35 °C, 24 h; read-out: MIC
[10] = tested on: clinical yeast isolates (Candida, Cryptococcus); assay: Broth microdilution MIC/MFC, pathogenic multidrug yeast strains; type: cell-based; details: whole panel of Candida isolates
Aspergillus niger 1133m = assay: Sensititre YeastOne antifungal susceptibility test; type: cell-based; details: Aspergillus niger, 1133M
A. fumigatus 390m = assay: Sensititre YeastOne antifungal susceptibility test; type: cell-based; details: Aspergillus fumigatus, 390M
A. terreus 497 = assay: Sensititre YeastOne antifungal susceptibility test; type: cell-based; details: Aspergillus terreus, 497
Candida albicans 1402 [11] = assay: Sensititre YeastOne antifungal susceptibility test; type: cell-based; details: Candida albicans, 1402
C. glabrata 1402 [12] = assay: Sensititre YeastOne antifungal susceptibility test; type: cell-based; details: Nakaseomyces glabratus, 1402
C. krusei 1447 [13] = assay: Sensititre YeastOne antifungal susceptibility test; type: cell-based; details: Sensititre YeastOne; C. krusei 1447
C. tropicalis 156 [14] = assay: Sensititre YeastOne antifungal susceptibility test; type: cell-based; details: Candida tropicalis; Sensititre YeastOne; C. tropicalis 156 clinical isolate; read-out: MIC
C. parapsilosis 571 [15] = assay: Sensititre YeastOne antifungal susceptibility test; type: cell-based; details: Lodderomyces parapsilosis, 571
[16] = tested on: Cryptococcus neoformans 297; assay: Sensititre YeastOne antifungal susceptibility test; type: cell-based; details: Sensititre YeastOne; Cryptococcus neoformans 297 clinical isolate; read-out: MIC
Cr. laurentii 325m = assay: Sensititre YeastOne antifungal susceptibility test; type: cell-based; details: Papiliotrema laurentii; Sensititre YeastOne; Cr. laurentii 325m clinical isolate; read-out: MIC

COc1cccc2c1C(=O)c1c(O)c3c(c(O)c1C2=O)C[C@@](O)(C(=O)CO)C[C@@H]3O[C@H]1C[C@H](N)[C@H](O)[C@H](C)O1 [Doxorubicin]
IC50 [1]: 600 ± 70 nM
IC50 [2]: 200 ± 30 nM
IC50 [3]: 200 ± 30 nM

OC(Cn1cncn1)(Cn1cncn1)c1ccc(F)cc1F [FZ, Fluconazole]
MIC (Candida albicans 1402 [4]): 64 µg/mL (≈ 209 µM)
MIC (C. glabrata 1402 [5]): 128 µg/mL (≈ 418 µM)
MIC (class symbol) (C. krusei 1447 [6]): R
MIC (C. tropicalis 156 [7]): 64 µg/mL (≈ 209 µM)
MIC (C. parapsilosis 571 [8]): 128 µg/mL (≈ 418 µM)
MIC [9]: 16 µg/mL (≈ 52.2 µM)
MIC (C. laurentii 325m): 32 µg/mL (≈ 104 µM)
antifungal activity (in words) [10]: little or no activity
MIC (Aspergillus niger 1133m): > 256 µg/mL
MIC (A. fumigatus 390m): > 256 µg/mL
MIC (A. terreus 497): > 256 µg/mL
MIC (Candida albicans 1402 [11]): 256 µg/mL (≈ 836 µM)
MIC (C. glabrata 1402 [12]): > 256 µg/mL
MIC (class symbol) (C. krusei 1447 [13]): R
MIC (C. tropicalis 156 [14]): 64 µg/mL (≈ 209 µM)
MIC (C. parapsilosis 571 [15]): 128 µg/mL (≈ 418 µM)
MIC [16]: 16 µg/mL (≈ 52.2 µM)
MIC (Cr. laurentii 325m): 32 µg/mL (≈ 104 µM)
